Experimental data taken from patent publication US11311593B2, “Root extracts from plants of the Morus genus and uses of same” (PLANT ADVANCED TECHNOLOGIES PAT, priority 2017, dated 2022).

Key:
[1] = tested on: fungal tyrosinase; experiment: Target Binding affinity test for tyrosinase (UPLC-MS of bound ligands)
Description: It is based on the principle of bringing the ligands and the target into contact in the liquid phase so that the ligands that have the greatest affinity with the target bind to it, elimination of the ligands that are not fixed, separation of the complexes in order to recover the ligands which have been fixed, then quantification of the latter. In a first step of the method, the extract and the target are mixed. The compounds of the extract compete for access to the binding sites of the target. The strongest compounds displace the weakest and are retained more effectively by the target. […] A reference sample was also prepared by diluting the sample to be analyzed 10-fold in a solution of water and a quarter of the volume of acetonitrile. […] Pre-conditioning step-Wells with a filtering membrane were pre-conditioned with a volume of 500 μL of an 85% solution of ammonium acetate and 15% of ethanol which was passed through the membrane by centrifuging at 14000 g for 60 seconds. 2. […] 3. Washing step-The mixture of the enzyme and the sample to be analyzed was deposited in a well that had been pre-conditioned in the pre-conditioning step, then centrifuged at 14000 g until most of the solvent had been eliminated. […] This procedure was repeated three times and eliminated all of the compounds that were not bound to the enzyme. 4. Separation step-The enzyme-ligand complexes retained in the filter were re-suspended in a volume of 10 μL of ultra-pure water, then mixed with a volume of 40 μL of acetonitrile in order to denature and precipitate the enzyme and, at the same time, to liberate the ligands. The mixture was centrifuged at 21000 g for 10 min in order to separate the precipitate from the supernatant. 5. Analysis step-Said supernatant was analyzed by liquid phase chromatography coupled to a mass spectrometer, also known by the acronym UPLC-MS. The reference sample was also analyzed in the same manner, using the same analytical conditions. The UPLC-MS analysis was carried out in accordance with the protocol described in Example 1. The chromatograms obtained are presented in FIGS. 3A and 3B and represent a signal intensity as a function of retention time in a column. […] Each peak is associated with one of the ligands present in the analyzed extract. The quantity associated with each ligand corresponds to the area of the peak. […] For each ligand, an affinity ratio, RACEi, was calculated as follows: [formula] where: NF is a normalization factor; […] the intensity of the analytical signal for the ligand CEi in the reference sample; ISeq,REF is the intensity of the analytical signal for the reference ligand REF (here, moracenin B) in the reference sample; […] the intensity of the analytical signal for the ligand CEi in the treated solution (the sample to be analyzed after steps 2 to 4 for binding and separation of the ligands) for the detached ligands; ISTB,REF is the intensity of the analytical signal for the reference ligand REF (here, moracenin B) in the treated solution (the sample to be analyzed after steps 2 to 4 for binding and separation of the ligands) for the detached ligands; RA, CEi is the relative affinity ratio (RA), representing an affinity of the ligand CEi for the target. The value of the ratio increases with affinity.

[2] = tested on: collagenase obtained from Clostridium Histolyticum; experiment: Target Binding affinity test for collagenase; details: ligands in non-stimulated M. alba root extract; moracenin B = reference ligand
Experimental: A root extract of Morus alba was prepared in accordance with the protocol described in Example 2.1. The Target Binding® method used was that of Example 2.3 which is described in patent application FR 1 670 545. The experimental protocol was as follows:
The target, a 6.25 mg/mL solution of collagenase obtained from Clostridium histolyticum, was prepared by dissolving lyophilized enzyme powder in 50 mM saline phosphate buffer with a pH of 7.5. The sample to be analyzed corresponded to the supernatant of the root extract obtained in accordance with Example 2.1. It could be centrifuged once again before use, at 21000 g for 15 min, in order to remove any traces of solid particles. A reference sample was also prepared by diluting the sample to be analyzed 10-fold in a solution of water and a quarter of the volume of acetonitrile.
1. Preconditioning step—Wells with a filtering membrane were preconditioned with a volume of 500 μL of a saline phosphate buffer which was passed through the membrane by centrifuging at 14000 g for 60 seconds.
2. Binding step—A volume of 92.5 μL of the solution obtained from the pretreatment step was mixed with 7.5 μL of the sample to be analyzed for 10 min in a plastic Eppendorf tube.
3. Washing step—The mixture of the enzyme and the sample to be analyzed was deposited in a well that had been preconditioned in the preconditioning step, then centrifuged at 14000 g until most of the solvent had been eliminated. The enzyme-ligand complexes remained on the surface of the filter membrane, then were re-suspended in a volume of 100 μL of the same saline phosphate buffer solution and centrifuged at 14000 g until the solvent had been eliminated. This procedure was repeated three times and eliminated all of the compounds that were not bound to the enzyme. 4. Separation step—The enzyme-ligand complexes retained in the filter were re-suspended in a volume of 10 μL of ultra-pure water then mixed with a volume of 30 μL of acetonitrile in order to denature and precipitate the enzyme and, at the same time, to liberate the ligands. The mixture was centrifuged at 21000 g for 10 min in order to separate the precipitate from the supernatant. 5. Analysis step—Said supernatant was analyzed by liquid phase chromatography coupled to a mass spectrometer. The reference sample was also analyzed in the same manner, using the same analytical conditions.
(§1) The UPLC-MS analysis was carried out in accordance with the protocol described in Example 1.

[3] = tested on: hyaluronidase; experiment: Target Binding affinity test for hyaluronidase; details: ligands in non-stimulated M. alba root extract; moracenin B = reference ligand
Experimental: A root extract of Morus Alba was prepared in accordance with the protocol described in Example 2.1. The Target Binding® method used was that of Example 2.3 which is described in patent application FR 1 670 545. The experimental protocol was as follows: The target, a 5 mg/mL solution of hyaluronidase, was prepared by dissolving powdered lyophilized enzyme in 50 mM sodium phosphate, with a pH of 7.0. The extract corresponded to the supernatant obtained in accordance with Example 2.1. It could optionally be centrifuged once again before use, at 21000 g for 15 min, in order to eliminate the solid particles before use. A reference sample was also prepared by diluting the sample 10-fold in a solution of water and a quarter of the volume of acetonitrile.
1. Preconditioning step—Wells with a filtering membrane were preconditioned with a volume of 500 μL of a solution of 50 mM sodium phosphate, at a pH of 7.0 which was passed through the membrane by centrifuging at 14000 g for 60 seconds.
2. Binding step—The hyaluronidase preparation (5 mg/mL) was mixed with 7.5 μL of the root extract for 5 min in a plastic Eppendorf tube.
3. Washing step—the mixture of the enzyme and the root extract was deposited in a well that had been preconditioned in the preconditioning step, then centrifuged at 14000 g until most of the solvent had been eliminated. The enzyme-ligand complexes remained on the surface of the membrane of the filter then were re-suspended in a volume of 100 μL of the same solution of 50 mM sodium phosphate at a pH of 7.0, and centrifuged at 14000 g until the solvent had been eliminated. This procedure was repeated three times and eliminated all of the compounds that were not bound to the enzyme. 4. Separation step—The enzyme-ligand complexes retained in the filter were re-suspended in a volume of 10 μL of ultra-pure water then mixed with a volume of 40 μL of acetonitrile in order to denature and precipitate the enzyme and at the same time to liberate the ligands. The mixture was centrifuged at 21000 g for 10 min in order to separate the precipitate from the supernatant. 5. Analysis step—Said supernatant was analyzed by liquid phase chromatography coupled to a mass spectrometer, also known by the acronym UPLC-MS. The reference sample was also analyzed in the same manner, using the same analytical conditions.
as §1

[4] = biological target: T1, hyaluronidase originating from bull testicles (type IV-S) (Bos taurus, UniProt Q2YDK3); experiment: Anti-hyaluronidase inhibiting activity, hyaluronic acid as substrate, precipitation with acidic BSA; assay type: biochemical
T1 construct: hyaluronidase originating from bull testicles (type IV-S); from tissue; host or cells: bull testicles
T1 sequence (Q2YDK3 36-553): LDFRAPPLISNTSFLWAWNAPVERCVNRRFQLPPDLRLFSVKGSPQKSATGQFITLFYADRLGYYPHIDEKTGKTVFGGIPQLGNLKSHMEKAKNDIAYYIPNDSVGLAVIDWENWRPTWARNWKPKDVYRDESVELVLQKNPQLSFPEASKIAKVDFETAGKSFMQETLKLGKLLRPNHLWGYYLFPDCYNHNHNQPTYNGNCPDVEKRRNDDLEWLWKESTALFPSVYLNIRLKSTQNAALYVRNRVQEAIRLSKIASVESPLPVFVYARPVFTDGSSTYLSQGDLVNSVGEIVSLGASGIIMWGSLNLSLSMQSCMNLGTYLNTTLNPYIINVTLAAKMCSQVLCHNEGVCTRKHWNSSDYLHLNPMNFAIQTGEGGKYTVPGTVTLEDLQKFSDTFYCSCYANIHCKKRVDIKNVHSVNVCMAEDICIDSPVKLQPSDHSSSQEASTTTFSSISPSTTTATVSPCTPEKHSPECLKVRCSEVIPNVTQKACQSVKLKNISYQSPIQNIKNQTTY
Experimental: A root extract of Morus Alba was prepared in accordance with the protocol described in Example 5. Hyaluronidase catalyzes the hydrolysis of hyaluronic acids into monosaccharides, disaccharides and short oligosaccharides. The measurement of the anti-hyaluronidase inhibiting activity was carried out using hyaluronic acid (HA) as a substrate in order to follow its reduction during the enzymatic reaction, the slope of the reduction of the concentration of HA during the reaction being proportional to the enzymatic activity.
The concentration of HA was measured in accordance with the following principle: in the presence of an acidic solution of bovine serum albumin, HA precipitates. Thus, in the case of the presence of HA, a precipitate is formed and in the case of complete hydrolysis of the HA, no precipitate is observed. Thus, the quantity of precipitation is proportion& to the HA content. […]
In order to follow the enzymatic degradation of the HA, a volume of 50 μl of RM was removed every 15 minutes, mixed with a volume of 250 μL of the solution of acidic BSA (acidic solution of bovine serum albumin: 24 mM sodium acetate, 79 mM acetic add and 0.1% (w/v) bovine serum albumin, pH 3.75) then incubated for 10 min at ambient temperature. The quantity of precipitate formed was then measured using a plate reader (diffusion of light at 600 nm). […]

`CC(C)=CCc1c(O)ccc(C(=O)C2C(c3c(O)cc(-c4cc5ccc(O)c(CC=C(C)C)c5o4)cc3O)C=C(C)CC2c2ccc(O)cc2O)c1O` (centres unmarked) [Mulberrofuran T, mulberrofuran T] was tested, and the “Relative affinity (RA) for tyrosinase” value ([1]; ligands in non-stimulated M. alba root extract, moracenin B = reference ligand) was 36.2, the “affinity for tyrosinase compared with the other compounds of the extract (in words)” value ([1]; peak areas of FIG. 3B / relative affinities) was “greater affinity” and the “Relative affinity (RA) for collagenase” value [2] was 1.1. The “Relative affinity (RA) for hyaluronidase” value [3] was 2.7.

With `O=c1c(O)c(-c2ccc(O)c(O)c2)oc2cc(O)cc(O)c12` [quercetin, reference compound] the inhibition at 10 µM [4] was 15.6%.
